Test results: US20020111274A1, “1-alkyl-3-[1-(substituted phenyl) benzotriazol-6-yl] uracils” (BASF Aktiengesellschaft, priority 2000, published 2002)

Legend:
Parameters in all cases: scale not given here
ABUTH Velvetleaf [1] = experiment: Postemergence herbicidal evaluation, ABUTH; format: in vivo, Abutilon theophrasti, Medic.; details: postemergence spray, rated about two-three weeks after treatment
Method: (§1) In this evaluation, seedling plants are grown in jiffy flats for about two weeks. The test compounds are dispersed in 80/20 acetone/water mixtures containing 1.0% SUN-IT® II, a methylated seed oil, in sufficient quantities to provide the equivalent of about 0.006 kg to 0.400 kg per hectare of active compound when applied to the plants through a spray nozzle operating at 40 psi for a predetermined time. After spraying, the plants are placed on greenhouse benches and are cared for in accordance with conventional greenhouse procedures. Approximately two - three weeks after treatment, the seedling plants are examined and rated according to the rating system set forth below. Where more than one test is involved for a given compound, the data are averaged.

AMBEL Ragweed, Common [2] = experiment: Postemergence herbicidal evaluation, AMBEL; format: in vivo, Ambrosia artemisifolia, L.; details: postemergence spray, rated about two-three weeks after treatment
Method: as §1

CASOB Sicklepod [3] = experiment: Postemergence herbicidal evaluation, CASOB; format: in vivo, Cassia obtusifolia, L.; details: postemergence spray, rated about two-three weeks after treatment
Method: as §1

[4] = system: CHEAL Lambsquarters, Common; experiment: Postemergence herbicidal evaluation, CHEAL; format: in vivo, Chenopodium album, L.; details: postemergence spray, rated about two-three weeks after treatment
Method: as §1

ECHOG Barnyardgrass [5] = experiment: Postemergence herbicidal evaluation, ECHOG; format: in vivo, Echinochloa crus-galli, (L.) Beau; details: postemergence spray, rated about two-three weeks after treatment
Method: as §1

GALAP Galium [6] = experiment: Postemergence herbicidal evaluation, GALAP; format: in vivo, Galium aparine; details: postemergence spray, rated about two-three weeks after treatment
Method: as §1

[7] = system: IPOHE Morningglory, Ivyleaf; experiment: Postemergence herbicidal evaluation, IPOHE; format: in vivo, Ipomoea hederacea, (L.) Jacq.; details: postemergence spray, rated about two-three weeks after treatment
Method: as §1

SETVI Foxtail, Green [8] = experiment: Postemergence herbicidal evaluation, SETVI; format: in vivo, Setaria viridis, (L.) Beau; details: postemergence spray, rated about two-three weeks after treatment
Method: as §1

GLXMAW Soybean, Williams [9] = experiment: Postemergence herbicidal evaluation, GLXMAW; format: in vivo, Glycine max, (L.) Merr. cv Williams; details: postemergence spray, rated about two-three weeks after treatment
Method: as §1

[10] = system: TRZAWR Wheat, Winter, cv Riband; experiment: Postemergence herbicidal evaluation, TRZAWR; format: in vivo, Triticum aestivum; details: postemergence spray, rated about two-three weeks after treatment
Method: as §1

ORYSAT Rice, Tebonnet [11] = experiment: Postemergence herbicidal evaluation, ORYSAT; format: in vivo, Oryza sativa, (L.); details: postemergence spray, rated about two-three weeks after treatment
Method: as §1

ZEAMX Corn, Field [12] = experiment: Postemergence herbicidal evaluation, ZEAMX; format: in vivo, Zea mays, L. (Sammel-Bezeichnung); details: postemergence spray, rated about two-three weeks after treatment
Method: as §1

ABUTH Velvetleaf [13] = experiment: Preemergence herbicidal evaluation, ABUTH; format: in vivo, Abutilon theophrasti, Medic.; details: preemergence
Source text: (§2) The preemergence herbicidal activity of the test compounds of the present invention is exemplified by the following tests in which the seeds of a variety of monocotyledonous and dicotyledonous plants are separately mixed with potting soil and planted on top of approximately one inch of soil in separate pint cups. […] The treated cups are then placed on greenhouse benches, watered and cared for in accordance with conventional greenhouse procedures. From four to five weeks after treatment, the tests are terminated and each cup is examined and rated according to the rating system provided in Example 46.

AMBEL Ragweed, Common [14] = experiment: Preemergence herbicidal evaluation, AMBEL; format: in vivo, Ambrosia artemisifolia, L.; details: preemergence
Source text: as §2

CASOB Sicklepod [15] = experiment: Preemergence herbicidal evaluation, CASOB; format: in vivo, Cassia obtusifolia, L.; details: preemergence
Source text: as §2

[16] = system: CHEAL Lambsquarters, Common; experiment: Preemergence herbicidal evaluation, CHEAL; format: in vivo, Chenopodium album, L.; details: preemergence
Source text: as §2

ECHOG Barnyardgrass [17] = experiment: Preemergence herbicidal evaluation, ECHOG; format: in vivo, Echinochloa crus-galli, (L.) Beau; details: preemergence
Source text: as §2

GALAP Galium [18] = experiment: Preemergence herbicidal evaluation, GALAP; format: in vivo, Galium aparine; details: preemergence
Source text: as §2

[19] = system: IPOHE Morningglory, Ivyleaf; experiment: Preemergence herbicidal evaluation, IPOHE; format: in vivo, Ipomoea hederacea, (L.) Jacq.; details: preemergence
Source text: as §2

SETVI Foxtail, Green [20] = experiment: Preemergence herbicidal evaluation, SETVI; format: in vivo, Setaria viridis, (L.) Beau; details: preemergence
Source text: as §2

GLXMAW Soybean, Williams [21] = experiment: Preemergence herbicidal evaluation, GLXMAW; format: in vivo, Glycine max, (L.) Merr. cv Williams; details: preemergence
Source text: as §2

[22] = system: TRZAWR Wheat, Winter, cv Riband; experiment: Preemergence herbicidal evaluation, TRZAWR; format: in vivo, Triticum aestivum; details: preemergence
Source text: as §2

ORYSAT Rice, Tebonnet [23] = experiment: Preemergence herbicidal evaluation, ORYSAT; format: in vivo, Oryza sativa, (L.); details: preemergence
Source text: as §2

ZEAMX Corn, Field [24] = experiment: Preemergence herbicidal evaluation, ZEAMX; format: in vivo, Zea mays, L. (Sammel-Bezeichnung); details: preemergence
Source text: as §2

COC(=O)C(C)Oc1ccc(C)cc1-n1nnc2cc(F)c(-n3c(=O)cc(C(F)(F)F)n(C)c3=O)cc21 (centres unmarked) [Example 41]
0.0: Postemergence herbicidal rating GALAP (GALAP Galium [6]; 0.008 kg/ha) | AMBEL herbicidal rating (AMBEL Ragweed, Common [14]; rate 0.016 kg/ha) | AMBEL herbicidal rating (AMBEL Ragweed, Common [14]; rate 0.032 kg/ha) | AMBEL herbicidal rating (AMBEL Ragweed, Common [14]; rate 0.062 kg/ha) | CASOB herbicidal rating (CASOB Sicklepod [15]; rate 0.016 kg/ha) | CASOB herbicidal rating (CASOB Sicklepod [15]; rate 0.032 kg/ha) | CASOB herbicidal rating (CASOB Sicklepod [15]; rate 0.062 kg/ha) | ECHCG herbicidal rating (ECHOG Barnyardgrass [17]; rate 0.016 kg/ha) | ECHCG herbicidal rating (ECHOG Barnyardgrass [17]; rate 0.032 kg/ha) | ECHCG herbicidal rating (ECHOG Barnyardgrass [17]; rate 0.062 kg/ha) | GALAP herbicidal rating (GALAP Galium [18]; rate 0.016 kg/ha) | GALAP herbicidal rating (GALAP Galium [18]; rate 0.032 kg/ha) | GALAP herbicidal rating (GALAP Galium [18]; rate 0.062 kg/ha) | GALAP herbicidal rating (GALAP Galium [18]; rate 0.125 kg/ha) | IPOHE herbicidal rating ([19]; rate 0.016 kg/ha) | IPOHE herbicidal rating ([19]; rate 0.032 kg/ha) | IPOHE herbicidal rating ([19]; rate 0.062 kg/ha) | SETVI herbicidal rating (SETVI Foxtail, Green [20]; rate 0.016 kg/ha) | SETVI herbicidal rating (SETVI Foxtail, Green [20]; rate 0.032 kg/ha) | SETVI herbicidal rating (SETVI Foxtail, Green [20]; rate 0.062 kg/ha) | GLXMAW herbicidal rating (GLXMAW Soybean, Williams [21]; rate 0.016 kg/ha) | GLXMAW herbicidal rating (GLXMAW Soybean, Williams [21]; rate 0.032 kg/ha) | TRZAWR herbicidal rating ([22]; rate 0.016 kg/ha) | TRZAWR herbicidal rating ([22]; rate 0.032 kg/ha) | TRZAWR herbicidal rating ([22]; rate 0.062 kg/ha) | ORYSAT herbicidal rating (ORYSAT Rice, Tebonnet [23]; rate 0.016 kg/ha) | ORYSAT herbicidal rating (ORYSAT Rice, Tebonnet [23]; rate 0.032 kg/ha) | ZEAMX herbicidal rating (ZEAMX Corn, Field [24]; rate 0.016 kg/ha) | ZEAMX herbicidal rating (ZEAMX Corn, Field [24]; rate 0.032 kg/ha) | ZEAMX herbicidal rating (ZEAMX Corn, Field [24]; rate 0.062 kg/ha) | ZEAMX herbicidal rating (ZEAMX Corn, Field [24]; rate 0.125 kg/ha)
6.: Postemergence herbicidal rating ECHCG (ECHOG Barnyardgrass [5]; 0.008 kg/ha)
4.0: Postemergence herbicidal rating CASOB (CASOB Sicklepod [3]; 0.032 kg/ha) | Postemergence herbicidal rating CHEAL ([4]; 0.032 kg/ha) | ABUTH herbicidal rating (ABUTH Velvetleaf [13]; rate 0.016 kg/ha) | ABUTH herbicidal rating (ABUTH Velvetleaf [13]; rate 0.032 kg/ha) | CHEAL herbicidal rating ([16]; rate 0.016 kg/ha) | ECHCG herbicidal rating (ECHOG Barnyardgrass [17]; rate 0.125 kg/ha) | ORYSAT herbicidal rating (ORYSAT Rice, Tebonnet [23]; rate 0.125 kg/ha)
8.0: Postemergence herbicidal rating GLXMAW (GLXMAW Soybean, Williams [9]; 0.032 kg/ha) | Postemergence herbicidal rating GLXMAW (GLXMAW Soybean, Williams [9]; 0.062 kg/ha) | Postemergence herbicidal rating TRZAWR ([10]; 0.032 kg/ha) | Postemergence herbicidal rating TRZAWR ([10]; 0.062 kg/ha) | Postemergence herbicidal rating ORYSAT (ORYSAT Rice, Tebonnet [11]; 0.062 kg/ha) | Postemergence herbicidal rating ZEAMX (ZEAMX Corn, Field [12]; 0.016 kg/ha) | Postemergence herbicidal rating ZEAMX (ZEAMX Corn, Field [12]; 0.032 kg/ha)
5.0: Postemergence herbicidal rating CHEAL ([4]; 0.062 kg/ha)
6.0: Postemergence herbicidal rating TRZAWR ([10]; 0.008 kg/ha)
1.5: Postemergence herbicidal rating ORYSAT (ORYSAT Rice, Tebonnet [11]; 0.008 kg/ha)
6.5: Postemergence herbicidal rating ZEAMX (ZEAMX Corn, Field [12]; 0.008 kg/ha)
7.0: Postemergence herbicidal rating AMBEL (AMBEL Ragweed, Common [2]; 0.008 kg/ha) | Postemergence herbicidal rating SETVI (SETVI Foxtail, Green [8]; 0.008 kg/ha) | Postemergence herbicidal rating TRZAWR ([10]; 0.016 kg/ha) | Postemergence herbicidal rating ORYSAT (ORYSAT Rice, Tebonnet [11]; 0.032 kg/ha) | AMBEL herbicidal rating (AMBEL Ragweed, Common [14]; rate 0.125 kg/ha)
9.0: Postemergence herbicidal rating ABUTH (ABUTH Velvetleaf [1]; 0.008 kg/ha) | Postemergence herbicidal rating ABUTH (ABUTH Velvetleaf [1]; 0.016 kg/ha) | Postemergence herbicidal rating ABUTH (ABUTH Velvetleaf [1]; 0.032 kg/ha) | Postemergence herbicidal rating ABUTH (ABUTH Velvetleaf [1]; 0.062 kg/ha) | Postemergence herbicidal rating AMBEL (AMBEL Ragweed, Common [2]; 0.016 kg/ha) | Postemergence herbicidal rating AMBEL (AMBEL Ragweed, Common [2]; 0.032 kg/ha) | Postemergence herbicidal rating AMBEL (AMBEL Ragweed, Common [2]; 0.062 kg/ha) | Postemergence herbicidal rating CASOB (CASOB Sicklepod [3]; 0.062 kg/ha) | Postemergence herbicidal rating ECHCG (ECHOG Barnyardgrass [5]; 0.016 kg/ha) | Postemergence herbicidal rating ECHCG (ECHOG Barnyardgrass [5]; 0.032 kg/ha) | Postemergence herbicidal rating ECHCG (ECHOG Barnyardgrass [5]; 0.062 kg/ha) | Postemergence herbicidal rating IPOHE ([7]; 0.008 kg/ha) | Postemergence herbicidal rating IPOHE ([7]; 0.016 kg/ha) | Postemergence herbicidal rating IPOHE ([7]; 0.032 kg/ha) | Postemergence herbicidal rating IPOHE ([7]; 0.062 kg/ha) | Postemergence herbicidal rating SETVI (SETVI Foxtail, Green [8]; 0.016 kg/ha) | Postemergence herbicidal rating SETVI (SETVI Foxtail, Green [8]; 0.032 kg/ha) | Postemergence herbicidal rating SETVI (SETVI Foxtail, Green [8]; 0.062 kg/ha) | Postemergence herbicidal rating ZEAMX (ZEAMX Corn, Field [12]; 0.062 kg/ha) | ABUTH herbicidal rating (ABUTH Velvetleaf [13]; rate 0.062 kg/ha) | ABUTH herbicidal rating (ABUTH Velvetleaf [13]; rate 0.125 kg/ha) | CHEAL herbicidal rating ([16]; rate 0.032 kg/ha) | CHEAL herbicidal rating ([16]; rate 0.062 kg/ha) | CHEAL herbicidal rating ([16]; rate 0.125 kg/ha) | IPOHE herbicidal rating ([19]; rate 0.125 kg/ha) | SETVI herbicidal rating (SETVI Foxtail, Green [20]; rate 0.125 kg/ha)
2.0: Postemergence herbicidal rating CHEAL ([4]; 0.008 kg/ha) | Postemergence herbicidal rating CHEAL ([4]; 0.016 kg/ha) | GLXMAW herbicidal rating (GLXMAW Soybean, Williams [21]; rate 0.062 kg/ha) | GLXMAW herbicidal rating (GLXMAW Soybean, Williams [21]; rate 0.125 kg/ha)
7.5: Postemergence herbicidal rating GLXMAW (GLXMAW Soybean, Williams [9]; 0.016 kg/ha)
5.5: Postemergence herbicidal rating GLXMAW (GLXMAW Soybean, Williams [9]; 0.008 kg/ha)
3.0: Postemergence herbicidal rating CASOB (CASOB Sicklepod [3]; 0.016 kg/ha) | Postemergence herbicidal rating GALAP (GALAP Galium [6]; 0.032 kg/ha) | Postemergence herbicidal rating GALAP (GALAP Galium [6]; 0.062 kg/ha) | ORYSAT herbicidal rating (ORYSAT Rice, Tebonnet [23]; rate 0.062 kg/ha)
2.5: Postemergence herbicidal rating ORYSAT (ORYSAT Rice, Tebonnet [11]; 0.016 kg/ha)
1.0: Postemergence herbicidal rating CASOB (CASOB Sicklepod [3]; 0.008 kg/ha) | Postemergence herbicidal rating GALAP (GALAP Galium [6]; 0.016 kg/ha) | TRZAWR herbicidal rating ([22]; rate 0.125 kg/ha)
